The target of data set [1] is Translocator protein (Rattus norvegicus, UniProt P16257). As to the kind of experiment: Displacement of [3H]PK11195 from TSPO in rat kidney mitochondrial membrane. In general terms: In a radioligand displacement assay an active substance lowers the binding of a labelled ligand.
Data set [2] relates to GABA-A receptor, central benzodiazepine site (Rattus norvegicus). As to the kind of experiment: Displacement of [3H]flumazenil from central benzodiazepine site of GABA-A receptor in rat cerebral cortex membrane after 90 mins.
The nature of data set [3]: Drug level in monkey putamen at 0.155 to 0.859 nmol/kg, iv after 40 mins. It counts as ADME, organism-based, Macaca mulatta. The conditions noted are these: rhesus monkey, in vivo.
The subject of data set [4] is Plasma. As to the kind of experiment: Fraction unbound in monkey plasma at 0.155 to 0.859 nmol/kg, iv by PET analysis. It counts as ADME, organism-based, Macaca mulatta. As to conditions: rhesus monkey, in vivo.

Calls of active or inactive are those of the source. The rule behind the calls is not given here.

Chain of Translocator protein (P16257 whole entry, looked up): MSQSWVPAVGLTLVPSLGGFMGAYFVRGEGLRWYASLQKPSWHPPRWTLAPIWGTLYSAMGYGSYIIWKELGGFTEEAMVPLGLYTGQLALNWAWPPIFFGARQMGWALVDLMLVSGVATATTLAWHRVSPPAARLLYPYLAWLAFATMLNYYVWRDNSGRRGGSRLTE

As to `CCCCCCN(CCCCCC)C(=O)C(=O)c1c(-c2ccc(F)cc2)n(C)c2ccccc12`, the Ki in data set [1] was 1.07 nM. Moreover, the result in data set [2] was inactive.

For `CCCCCCN(CCCCCC)C(=O)C(=O)c1c(-c2ccc(F)cc2)[nH]c2ccccc12`, the outcome in data set [2] was inactive.

`CN(Cc1ccccc1)C(=O)C(=O)c1c(-c2ccccc2)n(C)c2ccccc12` returned a Ki in data set [1] of 20.9 nM. Also, the result in data set [2] was inactive.

On to `CCN(Cc1ccccc1)C(=O)C(=O)c1c(-c2ccccc2)[nH]c2ccccc12`, for which the result in data set [2] was inactive.

Regarding `CCCCN(C)C(=O)C(=O)c1c(-c2ccccc2)[nH]c2ccccc12`, the outcome in data set [2] was inactive.

Take `CCCN(CCC)C(=O)C(=O)c1c(-c2ccc([N+](=O)[O-])cc2)n(C)c2ccccc12`: the inhibition constant (Ki) in data set [1] was 5.7 nM.

`CCCN(CCC)C(=O)C(=O)c1c(-c2ccccc2)n(C)c2ccc(F)cc12` yielded a Ki in data set [1] of 23.7 nM. Moreover, the outcome in data set [2] was inactive.

In the case of `CCCCN(CCCC)C(=O)C(=O)c1c(-c2ccccc2)[nH]c2ccccc12`, the result in data set [2] was inactive.

Consider `CCCN(CCC)C(=O)C(=O)c1c(-c2ccccc2)[nH]c2ccccc12`, for which, in data set [2], the outcome was inactive.

Turning to `CCCN(CCC)C(=O)C(=O)c1c(-c2ccccc2)[nH]c2ccc(F)cc12`, the result in data set [2] was inactive.

Consider `CN(Cc1ccccc1)C(=O)C(=O)c1c(-c2ccccc2)[nH]c2ccccc12`, for which the inhibition constant Ki in data set [1] is 12 nM. Further, the outcome in data set [2] was inactive.

As to `CN(Cc1ccccc1)C(=O)C(=O)c1c(-c2ccc(F)cc2)[nH]c2ccccc12`, in data set [1], the Ki was found to be 1.8 nM. Besides, in data set [2], the result was inactive.

For `CCCCCCN(CCCCCC)C(=O)C(=O)c1c(-c2ccccc2)n(C)c2ccccc12`, affinity in data set [1] was put at a Ki of 0.299 nM. The result in data set [2] was inactive.

As to `CCCCCCN(CCCCCC)C(=O)C(=O)c1c(-c2ccccc2)[nH]c2ccccc12`, in data set [2], the outcome was inactive.

`CCCCCN(C)C(=O)C(=O)c1c(-c2ccccc2)n(C)c2ccccc12` registered a Ki in data set [1] of 38.2 nM. In addition, the outcome in data set [2] was inactive.

Compound `CCN(Cc1ccccc1)C(=O)C(=O)c1c(-c2ccccc2)n(C)c2ccccc12` displayed a Ki in data set [1] of 2.92 nM. The outcome in data set [2] was inactive.

`CCCCN(CCCC)C(=O)C(=O)c1c(-c2ccccc2)n(C)c2ccccc12`: the affinity in data set [1], expressed as Ki, was 0.3 nM. For the same compound, in data set [2], the outcome was inactive.

Regarding `CCCN(CCC)C(=O)C(=O)c1c(-c2ccc(F)cc2)n(C)c2ccccc12`, in data set [1], the Ki amounted to 19.8 nM. Further, in data set [2], the outcome was inactive.

Take `CN(Cc1ccccc1)C(=O)C(=O)c1c(-c2ccc(F)cc2)n(C)c2ccccc12`: the affinity in data set [1], expressed as Ki, was 6.77 nM. In addition, in data set [2], the result was inactive.

As to `CCCCN(CC)C(=O)C(=O)c1c(-c2ccccc2)[nH]c2ccccc12`, the outcome in data set [2] was inactive.

In data set [1], `CCCN(CCC)C(=O)C(=O)c1c(-c2ccccc2)n(C)c2ccccc12` had a Ki of 19.5 nM. Moreover, the result in data set [2] was inactive.

On to `CCCN(CCC)C(=O)C(=O)c1c(-c2ccc(F)cc2)[nH]c2ccccc12`, for which the result in data set [2] was inactive.

Regarding `CCCCN(CC)C(=O)C(=O)c1c(-c2ccccc2)n(C)c2ccccc12`, in data set [1], affinity was put at a Ki of 60.2 nM. For the same compound, the outcome in data set [2] was inactive.

The compound `CCCCN(C)C(=O)C(=O)c1c(-c2ccccc2)n(C)c2ccccc12` registered an inhibitory constant (Ki) in data set [1] of 190 nM. The result in data set [2] was inactive.

With `CCCCCN(C)C(=O)C(=O)c1c(-c2ccccc2)[nH]c2ccccc12`, in data set [2], the outcome was inactive.

`CCCN(CCC)C(=O)C(=O)c1c(-c2cc[11c]([N+](=O)[O-])cc2)n(C)c2ccccc12` yielded an SUV in data set [3] of 2.32. This compound also had a Fu in data set [4] of 0.71%.

Usually Ki stands for the equilibrium dissociation constant of an inhibitor or competing ligand from its target.

The record behind these values is ChEMBL document CHEMBL1649086, “Evaluation of novel N1-methyl-2-phenylindol-3-ylglyoxylamides as a new chemotype of 18 kDa translocator protein-selective ligand suitable for the development of positron emission tomography radioligands” (J Med Chem, 2011).
